Measurements reported in ChEMBL document CHEMBL1141575, “Preparation and in vitro biological evaluation of tetrapyrrole ethanolamide derivatives as potential anticancer agents” (Bioorg Med Chem Lett, 2008).

How the values were obtained:
HeLa [1] = assay: Survival of human HeLa cells at 0.1 uM under deem light after 96 hrs by MTT assay relative to control; type: functional; details: read-out: Survival
HeLa [2] = assay: Survival of human HeLa cells at 10 uM under deem light after 96 hrs by MTT assay relative to control; type: functional; details: read-out: Survival
HeLa [3] = assay: Survival of human HeLa cells at 50 uM under deem light after 96 hrs by MTT assay relative to control; type: functional; details: read-out: Survival
HeLa [4] = assay: Survival of human HeLa cells at 100 uM under deem light after 96 hrs by MTT assay relative to control; type: functional; details: read-out: Survival
NCI-H69 [5] = assay: Survival of human H69 cells at 0.1 uM under deem light after 96 hrs by MTT assay relative to control; type: functional; details: NCI-H69, 96 h, read-out: Survival
NCI-H69 [6] = assay: Survival of human H69 cells at 10 uM under deem light after 96 hrs by MTT assay relative to control; type: functional; details: NCI-H69, 96 h, read-out: Survival
NCI-H69 [7] = assay: Survival of human H69 cells at 50 uM under deem light after 96 hrs by MTT assay relative to control; type: functional; details: NCI-H69, 96 h, read-out: Survival
NCI-H69 [8] = assay: Survival of human H69 cells at 100 uM under deem light after 96 hrs by MTT assay relative to control; type: functional; details: NCI-H69, 96 h, read-out: Survival
[9] = Survival of human H209 cells at 0.1 uM under deem light after 96 hrs by MTT assay relative to control; type: functional; details: NCI-H209, 96 h, read-out: Survival
[10] = Survival of human H209 cells at 10 uM under deem light after 96 hrs by MTT assay relative to control; type: functional; details: NCI-H209, 96 h, read-out: Survival
[11] = Survival of human H209 cells at 50 uM under deem light after 96 hrs by MTT assay relative to control; type: functional; details: NCI-H209, 96 h, read-out: Survival
[12] = Survival of human H209 cells at 100 uM under deem light after 96 hrs by MTT assay relative to control; type: functional; details: NCI-H209, 96 h, read-out: Survival
[13] = Survival of human 2780.9S cells at 0.1 uM under deem light after 96 hrs by MTT assay relative to control; type: functional; details: read-out: Survival
[14] = Survival of human 2780.9S cells at 10 uM under deem light after 96 hrs by MTT assay relative to control; type: functional; details: read-out: Survival
[15] = Survival of human 2780.9S cells at 50 uM under deem light after 96 hrs by MTT assay relative to control; type: functional; details: read-out: Survival
[16] = Survival of human 2780.9S cells at 100 uM under deem light after 96 hrs by MTT assay relative to control; type: functional; details: read-out: Survival
[17] = Survival of human MDA-MB cells at 0.1 uM under deem light after 96 hrs by MTT assay relative to control; type: functional; details: read-out: Survival
[18] = Survival of human MDA-MB cells at 10 uM under deem light after 96 hrs by MTT assay relative to control; type: functional; details: read-out: Survival
[19] = Survival of human MDA-MB cells at 50 uM under deem light after 96 hrs by MTT assay relative to control; type: functional; details: read-out: Survival
[20] = Survival of human MDA-MB cells at 100 uM under deem light after 96 hrs by MTT assay relative to control; type: functional; details: read-out: Survival
SiHa [21] = assay: Cytotoxicity against human SIHA cells under deem light after 96 hrs by MTT assay; type: functional, cell-based
Raji [22] = assay: Cytotoxicity against human Raji cells under deem light after 96 hrs by MTT assay; type: functional, cell-based
[23] = Cytotoxicity against human MDA-MB cells under deem light after 96 hrs by MTT assay; type: functional, cell-based
K562 [24] = assay: Cytotoxicity against human K562 cells under deem light after 96 hrs by MTT assay; type: functional, cell-based; details: K562, 96 h
HeLa [25] = assay: Cytotoxicity against human HeLa cells under deem light after 96 hrs by MTT assay; type: functional, cell-based
NCI-H69 [26] = assay: Cytotoxicity against human H69 cells under deem light after 96 hrs by MTT assay; type: functional, cell-based; details: NCI-H69, 96 h
Daudi = assay: Cytotoxicity against human Daudi cells under deem light after 96 hrs by MTT assay; type: functional, cell-based
[27] = Cytotoxicity against human 2780.9S cells under deem light after 96 hrs by MTT assay; type: functional, cell-based
[28] = Photohemolysis in human RBC in absence of light; type: ADME, cell-based; details: erythrocyte
[29] = Photohemolysis in human RBC at 375 nM under exposure to light for 10 mins; type: ADME, cell-based, Erythrocyte; details: human red blood cells, read-out: Activity
[30] = Photohemolysis in human RBC assessed as concentration required to 50% hemolysis under light exposure for 5 mins; type: ADME, cell-based, Erythrocyte; details: human red blood cells, read-out: Activity
[31] = Photohemolysis in human RBC assessed as concentration required to 50% hemolysis under light exposure for 10 mins; type: ADME, cell-based, Erythrocyte; details: human red blood cells, read-out: Activity
SiHa [32] = assay: Survival of human SIHA cells at 1 uM under deem light after 96 hrs by MTT assay relative to control; type: functional; details: read-out: Survival
K562 [33] = assay: Survival of human K562 cells at 1 uM under deem light after 96 hrs by MTT assay relative to control; type: functional; details: K562, 96 h, read-out: Survival
Raji [34] = assay: Survival of human Raji cells at 1 uM under deem light after 96 hrs by MTT assay relative to control; type: functional; details: read-out: Survival
HeLa [35] = assay: Survival of human HeLa cells at 1 uM under deem light after 96 hrs by MTT assay relative to control; type: functional; details: read-out: Survival
NCI-H69 [36] = assay: Survival of human H69 cells at 1 uM under deem light after 96 hrs by MTT assay relative to control; type: functional; details: NCI-H69, 96 h, read-out: Survival
[37] = Survival of human H209 cells at 1 uM under deem light after 96 hrs by MTT assay relative to control; type: functional; details: NCI-H209, 96 h, read-out: Survival
[38] = Survival of human 2780.9S cells at 1 uM under deem light after 96 hrs by MTT assay relative to control; type: functional; details: read-out: Survival
[39] = Survival of human MDA-MB cells at 1 uM under deem light after 96 hrs by MTT assay relative to control; type: functional; details: read-out: Survival
SiHa [40] = assay: Survival of human SIHA cells at 10 uM under deem light after 96 hrs by MTT assay relative to control; type: functional; details: read-out: Survival
SiHa [41] = assay: Survival of human SIHA cells at 50 uM under deem light after 96 hrs by MTT assay relative to control; type: functional; details: read-out: Survival
SiHa [42] = assay: Survival of human SIHA cells at 100 uM under deem light after 96 hrs by MTT assay relative to control; type: functional; details: read-out: Survival
K562 [43] = assay: Survival of human K562 cells at 0.1 uM under deem light after 96 hrs by MTT assay relative to control; type: functional; details: K562, 96 h, read-out: Survival
K562 [44] = assay: Survival of human K562 cells at 10 uM under deem light after 96 hrs by MTT assay relative to control; type: functional; details: K562, 96 h, read-out: Survival
K562 [45] = assay: Survival of human K562 cells at 50 uM under deem light after 96 hrs by MTT assay relative to control; type: functional; details: K562, 96 h, read-out: Survival
K562 [46] = assay: Survival of human K562 cells at 100 uM under deem light after 96 hrs by MTT assay relative to control; type: functional; details: K562, 96 h, read-out: Survival
Raji [47] = assay: Survival of human Raji cells at 0.1 uM under deem light after 96 hrs by MTT assay relative to control; type: functional; details: read-out: Survival
Raji [48] = assay: Survival of human Raji cells at 10 uM under deem light after 96 hrs by MTT assay relative to control; type: functional; details: read-out: Survival
Raji [49] = assay: Survival of human Raji cells at 50 uM under deem light after 96 hrs by MTT assay relative to control; type: functional; details: read-out: Survival
Raji [50] = assay: Survival of human Raji cells at 100 uM under deem light after 96 hrs by MTT assay relative to control; type: functional; details: read-out: Survival

In the case of `CC1=C(CCC(=O)O)c2cc3nc(cc4[nH]c(cc5[nH]c(cc1n2)c(C)c5C(C)O)c(C)c4C(C)O)C(C)=C3CCC(=O)O` (stereo unspecified) [HAEMAPORPHYRIN], the viability at 0.1 µM (HeLa [1]) is reported as 85.8%, the viability at 10 µM (HeLa [2]) is reported as 113% and the viability at 50 µM (HeLa [3]) is reported as 109%. The viability at 100 µM (HeLa [4]) was 104%, the viability at 0.1 µM (NCI-H69 [5]) was 92.2% and the viability at 10 µM (NCI-H69 [6]) was 104%. It also gave a viability at 50 µM (NCI-H69 [7]) of 82.9%, a viability at 100 µM (NCI-H69 [8]) of 62.6% and a viability at 0.1 µM [9] of 91.4%. For the same compound, the viability at 10 µM [10] was 99.5%, the viability at 50 µM [11] was 93.3% and the viability at 100 µM [12] was 84.6%. The viability at 0.1 µM [13] was 102%, the viability at 10 µM [14] was 75.5% and the viability at 50 µM [15] was 81.4%. The viability at 100 µM [16] was 43.8%, the viability at 0.1 µM [17] was 136% and the viability at 10 µM [18] was 104%. It also gave a viability at 50 µM [19] of 107%, a viability at 100 µM [20] of 82.8% and an IC50 (SiHa [21]) of 56 µM. For the same compound, the IC50 (Raji [22]) was 57 µM, the IC50 [23] was > 100 µM and the IC50 (K562 [24]) was 44 µM. The IC50 (HeLa [25]) was 71 µM, the IC50 (NCI-H69 [26]) was 70 µM and the IC50 (Daudi) was 15 µM. The IC50 [27] was > 100 µM, the Activity [28] was “Non-toxic” and the hemolysis at 10 min, 0.375 µM [29] was 100%. The HC50 at 5 min [30] was 170 nM, the HC50 at 10 min [31] was 460 nM and the viability at 1 µM (SiHa [32]) was 92.2%. For the same compound, the viability at 1 µM (K562 [33]) was 82.7%, the viability at 1 µM (Raji [34]) was 89.6% and the viability at 1 µM (HeLa [35]) was 103%. It also gave a viability at 1 µM (NCI-H69 [36]) of 105%, a viability at 1 µM [37] of 94% and a viability at 1 µM [38] of 82.5%. For the same compound, the viability at 1 µM [39] was 115%, the viability at 10 µM (SiHa [40]) was 81.6% and the viability at 50 µM (SiHa [41]) was 52.6%. For the same compound, the viability at 100 µM (SiHa [42]) was 44.5%, the viability at 0.1 µM (K562 [43]) was 68.7% and the viability at 10 µM (K562 [44]) was 82.5%. For the same compound, the viability at 50 µM (K562 [45]) was 55.9%, the viability at 100 µM (K562 [46]) was 32.1% and the viability at 0.1 µM (Raji [47]) was 92.1%. The viability at 10 µM (Raji [48]) was 71.4%, the viability at 50 µM (Raji [49]) was 27.6% and the viability at 100 µM (Raji [50]) was 17%.
